Entries after “also recorded” stand apart in the source; their conditions may differ. Like-named read-outs stand apart in the source and are kept apart here.
Tests used:
[1] = test system: Salmonella typhimurium TA1535; test: Preincubation Ames test, strain TA1535; format: cell-based; conditions: for Effectiveness of time of preincubation for most effective S9 / More effective %S9 in S9 mix of more effective S9 (H or R) / Effectiveness of hamster vs. rat S9s for each positive strain: strain TA1535; for Effectiveness of time of preincubation for most effective S9: 30 vs 60 min; for Mutagenic response in TA1535: any activation condition and preincubation time; for More effective %S9 in S9 mix of more effective S9 (H or R): 10% vs 30% S9 in the S9 mix; for Effectiveness of hamster vs. rat S9s for each positive strain: H = hamster liver S9, R = rat liver S9
[2] = test system: Salmonella typhimurium TA100; test: Preincubation Ames test, strain TA100; format: cell-based; conditions: for Effectiveness of time of preincubation for most effective S9: 30 vs 60 min; for Effectiveness of hamster vs. rat S9s for each positive strain: H = hamster liver S9, R = rat liver S9
[3] = test system: E. coli WP2 uvrA (pKM101); test: Preincubation Ames test, strain WP2 uvrA; format: cell-based, Escherichia coli; conditions: for Effectiveness of time of preincubation for most effective S9 / Effectiveness of hamster vs. rat S9s for each positive strain: strain WP2 uvrA (pKM101); for Effectiveness of time of preincubation for most effective S9: 30 vs 60 min; for Effectiveness of hamster vs. rat S9s for each positive strain: H = hamster liver S9, R = rat liver S9; for Mutagenic response in WP2 uvrA (pKM101): any activation condition and preincubation time
[4] = test system: Salmonella typhimurium TA98; test: Preincubation Ames test, strain TA98; format: cell-based; conditions: for Effectiveness of time of preincubation for most effective S9: 30 vs 60 min; for Direct-acting mutagenicity in TA98: no exogenous metabolic activation (no S9)
[5] = test system: Salmonella typhimurium tester strains TA98, TA100, TA1535, and TA1537, and Escherichia coli strain WP2 uvrA (pKM101); test: Preincubation Ames test, five tester strains; format: cell-based; conditions: for Effect of length of preincubation on positive responses: 30 min vs 60 min, over all strains
[6] = published by FDA as of September 4, 2024, ref FDA, 2024a; cited from earlier work
[7] = PC1 most potent, PC5 least potent; ref FDA, 2024a; cited from earlier work
[8] = test system: Ames tester strains; conditions: cited from earlier work
[9] = cited from earlier work
[10] = test system: CHO, V79, L5178Y/Tk+/−, TK6, HepaRG cells; conditions: cell lines as named in the value; ref as given in Table 2 Notes; cited from earlier work
[11] = test system: Salmonella typhimurium TA1537; test: Preincubation Ames test, strain TA1537; conditions: strain TA1537; 30 vs 60 min
[12] = with S9 activation, listed as N-nitroso-propranolol
[13] = published/posted results, ref representative Ames references of Table 2
[14] = listed as N-nitroso-N-ethylaniline

Compound	Effectiveness of time of preincubation for most effective S9 [1]	Effectiveness of time of preincubation for most effective S9 ([2]; strain TA100)	Effectiveness of time of preincubation for most effective S9 [3]	AI limit [6]	CPCA Potency Category (PC) [7]	also measured
C[C@H]1CN(N=O)CCc2ccc(Cl)cc21 [NDSRI-14, (5R)-7-Chloro-5-methyl-3-nitroso-1,2,4,5-tetrahydro-3-benzazepine]	60min = 30min	60min = 30min	60min = 30min			Effectiveness of time of preincubation for most effective S9 ([4]; strain TA98): 60min = 30min
CC(C)N(N=O)C(C)C [SM-5, N,N-Di(propan-2-yl)nitrous amide]	60min = 30min			1500 ng/day	PC5	Activation condition required for positive responses ([5]; no S9, 10% and 30% rat or hamster liver S9, all strains, listed as NDIPA): positives were seen only with one strain (TA1535) and under one activation condition (preincubation with 30% hamster S9 mixes); also recorded: dependent upon preincubation with 30% hamster S9; also recorded: exclusively mutagenic with hamster liver S9; Mutagenic response in TA1535 [1]: only positive strain; More effective %S9 in S9 mix of more effective S9 (H or R) [1]: 30% only; Effectiveness of hamster vs. rat S9s for each positive strain [1]: H only
O=NN(c1ccccc1CC(=O)O)c1c(Cl)cccc1Cl [NDSRI-19, 2-[2-(2,6-Dichloro-N-nitrosoanilino)phenyl]acetic acid]				1500 ng/day		
CC(C)[C@H](C(=O)O)N(Cc1ccc(-c2ccccc2-c2nn[nH]n2)cc1)N=O [NDSRI-25, (2R)-3-Methyl-2-[nitroso-[[4-[2-(2H-tetrazol-5-yl)phenyl]phenyl]methyl]amino]butanoic acid]						Ames response (all S9-mediated except where noted) [8]: Negative; Mutagenicity in TGR assay ([9]; in vivo): Also negative in mouse TGR assay ([Glowienke et al., 2022])
CCN(N=O)C(C)C [SM-3, N-Ethyl-N-propan-2-ylnitrous amide]	60min = 30min		60min = 30min	400 ng/day	PC3	Mutagenicity/genotoxicity in mammalian cells in vitro [10]: Genotoxic in HepaRG, TK6 cells ([Li et al., 2022]; [Seo et al., 2023])
O=NN1CCN(C2CCCC2)CC1 [SM-10, 1-Cyclopentyl-4-nitrosopiperazine]	60min = 30min	30min ≥60min	60min = 30min	400 ng/day	PC3	Effectiveness of hamster vs. rat S9s for each positive strain [3]: H only; Mutagenicity/genotoxicity in mammalian cells in vitro [10]: Genotoxic in HepaRG cells ([Seo et al., 2023])
CC(C)N(CC(O)COc1cccc2ccccc12)N=O (centres unmarked) [NDSRI-17, N-(2-Hydroxy-3-naphthalen-1-yloxypropyl)-N-propan-2-ylnitrous amide]	60min = 30min	60min = 30min		1500 ng/day	PC4	S9-mediated mutagenicity in TA1535 [1, 12]: mutagenic; S9-mediated mutagenicity in TA100 [2, 12]: mutagenic; Direct-acting mutagenicity in TA98 [4]: b Direct acting mutagen in TA98.; Direct-acting mutagenicity in TA98 ([4]; listed as N-nitroso-propranolol): direct acting mutagen; also recorded: direct-acting mutagenicity of N-nitroso-propranolol was limited to TA98; Effectiveness of time of preincubation for most effective S9 ([4]; strain TA98): 60min = 30min; Ames response (all S9-mediated except where noted) [8, 13]: Positive; direct-acting in TA98
CN(N=O)C1CCC(c2ccc(Cl)c(Cl)c2)c2ccccc21 (centres unmarked) [NDSRI-21, N-(4-(3,4-Dichlorophenyl)-1,2,3,4-tetrahydronaphthalen-1-yl)-N-methylnitrous amide]			30min >60min	100 ng/day	PC2	Effect of length of preincubation on positive responses [5]: greater mutagenic responses with 30-min preincubations than with 60-min preincubations; Mutagenic response in TA1535 ([1]; listed as N-nitroso-sertraline): negative; also recorded: not positive; Mutagenic response in WP2 uvrA (pKM101) ([3]; listed as N-nitroso-sertraline): positive only; also recorded: mutagenic; Effectiveness of hamster vs. rat S9s for each positive strain [3]: H only
CN(C[C@H](O)c1cccc(O)c1)N=O [NDSRI-13, N-[(2R)-2-Hydroxy-2-(3-hydroxyphenyl)ethyl)-N-methylnitrous amide]				100 ng/day	PC2	
CN(CCC=C1c2ccccc2CCc2ccccc21)N=O [NDSRI-18, N-Methyl-N-[3-(2-tricyclo[9.4.0.03,8]pentadeca-1 (15),3,5,7,11,13-hexaenylidene)propyl]nitrous amide]	60min = 30min	60min = 30min	60min = 30min			
CCCCCCOC(=O)NC(=N)c1ccc(N(Cc2nc3cc(C(=O)N(CCC(=O)OCC)c4ccccn4)ccc3n2C)N=O)cc1 [NDSRI-29, Ethyl 3-[[2-[[4-(N-hexoxycarbonylcarbamimidoyl)-N-nitrosoanilino]methyl]-1-methylbenzimidazole-5-carbonyl]-pyridin-2-ylamino]propanoate]				400 ng/day	PC3	
CCN(N=O)c1ccccc1 [SM-8, N-Ethyl-N-phenylnitrous amide]			60min ≥ 30min			Effect of length of preincubation on positive responses [5]: benefited from a preincubation of 60 min compared with 30 min; Mutagenic response in TA1535 [1, 14]: negative; Mutagenic response in TA1535 ([1]; listed as NEPA): not positive; Mutagenic response in WP2 uvrA (pKM101) [3, 14]: positive only; Mutagenic response in WP2 uvrA (pKM101) ([3]; listed as NEPA): mutagenic; Ames response (all S9-mediated except where noted) [8]: Positive only with comutagen
CN(CCOC(c1ccccc1)c1ccccc1)N=O [NDSRI-16, N-(2-(Benzhydryloxy)ethyl)-N-methylnitrous amide]	60min = 30min	60min = 30min	60min >30min			Effect of length of preincubation on positive responses [5]: possibly N-nitroso-desmethyl-diphenhydramine benefited from a preincubation of 60 min compared with 30 min
CN(CCC(Oc1cccc2ccccc12)c1cccs1)N=O (centres unmarked) [NDSRI-20, N-Methyl-N-(3-naphthalen-1-yloxy-3-thiophen-2-ylpropyl) nitrous amide]	60min = 30min	30min >60min	60min = 30min	100 ng/day		Ames response (all S9-mediated except where noted) [8, 13]: Positive; Mutagenicity in TGR assay ([9]; species as in value, ref as given in Table 2 Notes): Interim AI limit currently in force; mutagenic in rat TGR assay ([Jolly et al., 2024])
CN(CCC(Oc1ccc(C(F)(F)F)cc1)c1ccccc1)N=O (centres unmarked) [NDSRI-22, N-Methyl-N-[3-phenyl-3-[4-(trifluoromethyl)phenoxy]propyl]nitrous amide]	60min = 30min	30min only	30min >60min			Effect of length of preincubation on positive responses ([5]; listed as N-nitroso-fluoxetine): greater mutagenic responses with 30-min preincubations than with 60-min preincubations; More effective %S9 in S9 mix of more effective S9 (H or R) [1]: 30% only; Effectiveness of hamster vs. rat S9s for each positive strain [1]: H only; More effective %S9 in S9 mix of more effective S9 (H or R) ([2]; strain TA100, 10% vs 30% S9 in the S9 mix): 30% only; Effectiveness of hamster vs. rat S9s for each positive strain ([2]; strain TA100): H only; More effective %S9 in S9 mix of more effective S9 (H or R) ([4]; strain TA98, 10% vs 30% S9 in the S9 mix): 30% only; Effectiveness of time of preincubation for most effective S9 ([4]; strain TA98): 30min only; Effectiveness of hamster vs. rat S9s for each positive strain ([4]; strain TA98, H = hamster liver S9, R = rat liver S9): H only; Ames response (all S9-mediated except where noted) [8]: Positive; Mutagenicity in TGR assay ([9]; in vivo): mutagenic in rat TGR assay
O=NN1CC2CC(C1)c1cc3nccnc3cc12 [NDSRI-15, 8-Nitroso-7,8,9, 10-tetrahydro-6H-6, 10-methanoazepino[4,5-g]quinoxaline]	60min ≥30min	60min = 30min	60min = 30min	400 ng/day	PC3	Effect of length of preincubation on positive responses [5]: benefited from a preincubation of 60 min compared with 30 min; Effectiveness of hamster vs. rat S9s for each positive strain ([2]; strain TA100): H only; Effectiveness of time of preincubation for most effective S9 ([4]; strain TA98): 60min ≥30min; Effectiveness of time of preincubation for most effective S9 [11]: 60min ≥30min

— article PMC12395388 (Regulatory toxicology and pharmacology : RTP, 2024)
